Legend:
[1] = test system: Wnt activity (SW480 colon carcinoma cells stably expressing the Sp5-Luc reporter gene); test: Sp5-Luc reporter gene screening assay for Wnt activity; type: cell-based; settings: Homo sapiens
Excerpt: The screening assay for Wnt activity is described as follows. Reporter cell lines can be generated by stably transducing cancer cell lines (e.g., colon cancer) or primary cells (e.g., IEC-6 intestinal cells) with a lentiviral construct that includes a Wnt-responsive promoter driving expression of the firefly luciferase gene.
SW480 colon carcinoma cells were transduced with a lentiviral vector expressing luciferase with a human Sp5 promoter consisting of a sequence of eight TCF/LEF binding sites. SW480 cells stably expressing the Sp5-Luc reporter gene and a hygromycin resistance gene were selected by treatment with 150 μg/ml of hygromycin for 7 days. These stably transduced SW480 cells were expanded in cell culture and used for all further screening activities. For Sp5-Luc reporter gene assays, the cells were plated at 10,000 cells/well in 96-well plates with growth medium containing 10% fetal calf serum and incubated overnight at 37° C. and 5% CO2. Each compound was dissolved in DMSO as a 10 mM stock in standard j-vials and used to prepare compound source plates in dose-response format with 3-fold serial dilutions and a 10 mM top concentration. Compound transfer from serially diluted source plates to assay plates containing the cells was accomplished using a pintool (Multimek 96, Beckman equipped with V&P Scientific FP1S50H pins) based liquid handling protocol. This protocol used a slotted pin to transfer 50 nl of compound from a source plate well to an assay plate well containing 50 μl of cells in growth medium. […] Control wells received 50 nl of DMSO treatment for normalization and calculating IC50 values. The treated cells were incubated at 37° C. and 5% CO2 for an additional forty-two hours. Following incubation, the growth medium was removed and 50 μl of BrightGlo luminescence reagent (Promega) was added to each well of the 96-well assay plates. The plates were placed on an orbital shaker for 5 min and then luminescence was quantified on the Victor3 (Perkin Elmer) plate reader. Readings were normalized to DMSO only treated cells, and normalized activities were utilized for IC50 calculations using the dose-response log (inhibitor) vs. response -variable slope (four parameters) nonlinear regression feature available in GraphPad Prism 5.0 or 6.0.

[2] = test system: primary human fibroblasts derived from IPF patients (LL29 cells); test: Inhibition of the fibrotic process in TGF-β1 treated IPF patient fibroblasts (αSMA staining); type: cell-based; settings: Fibroblast, 96 h, LL29 cells treated with TGF-β1 (20 ng/mL), 4 days, read-out: Inhibition of fibrosis EC50
Excerpt: The above synthesized compounds were screened using primary human fibroblasts (derived from IPF patients) treated with TGF-β1 to determine their ability to inhibit the fibrotic process.
Primary human fibroblasts derived from IPF patients (LL29 cells) [^1Xiaoqiu Liu, et. al., “Fibrotic Lung Fibroblasts Show Blunted Inhibition by cAMP Due to Deficient cAMP Response Element-Binding Protein Phosphorylation”, Journal of Pharmacology and Experimental Therapeutics (2005), 315(2), 678-687; ^2Watts, K. L., et. al., “RhoA signaling modulates cyclin D1 expression in human lung fibroblasts; implications for idiopathic pulmonary fibrosis”, Respiratory Research (2006), 7(1), 88] were obtained from American Type Culture Collection (ATCC) and expanded in F12 medium supplemented with 15% Fetal Bovine Serum and Penicillin/Streptomycin.
Each compound was dissolved in DMSO as a 10 mM stock and used to prepare compound source plates. Serial dilution (1:2, 11-point dose-response curves from 10 μM to 1.87 nM) and compound transfer was performed using the ECHO 550 (Labcyte, Sunnyvale, Calif.) into 384-well clear bottom assay plates (Greiner Bio-One) with appropriate DMSO backfill for a final DMSO concentration of 0.1%. LL29 cells were plated at 1,500 cells/well in 80 μl/well F12 medium supplemented with 1% Fetal Bovine Serum. One hour after addition of the cells, TGF-β1 (Peprotech; 20 ng/mL) was added to the plates to induce fibrosis (ref. 1 and 2 above). Wells treated with TGF-β1 and containing DMSO were used as controls. Cells were incubated at 37° C. and 5% CO2 for 4 days. Following incubation for 4 days, SYTOX green nucleic acid stain (Life Technologies [Thermo Fisher Scientific]) was added to the wells at a final concentration of 1 uM and incubated at room temperature for 30 min. Cells were then fixed using 4% formaldehyde (Electron Microscopy Sciences), washed 3 times with PBS followed by blocking and permeabilization using 3% Bovine Serum Albumin (BSA; Sigma) and 0.3% Triton X-100 (Sigma) in PBS. Cells were then stained with antibody specific to α-smooth muscle actin (αSMA; Abcam) (ref. 1 and 2 above) in 3% Bovine Serum Albumin (BSA; Sigma) and 0.3% Triton X-100 (Sigma) in PBS, and incubated overnight at 4° C. Cells were then washed 3 times with PBS, followed by incubation with Alexa Flor-647 conjugated secondary antibody (Life Technologies [Thermo Fisher Scientific]) and DAPI at room temperature for 1 hour. Cells were then washed 3 times with PBS and plates were sealed for imaging. αSMA staining was imaged by excitation at 630 nm and emission at 665 nm and quantified using the Compartmental Analysis program on the CellInsight CX5 (Thermo Scientific). Dead or apoptotic cells were excluded from analysis based on positive SYTOX green staining. % of total cells positive for αSMA were counted in each well and normalized to the average of 11 wells treated with TGF-β1 on the same plate using Dotmatics' Studies Software. The normalized averages (fold change over untreated) of 3 replicate wells for each compound concentration were used to create dose-responses curves and EC50 values were calculated using non-linear regression curve fit in the Dotmatics' Studies Software. The EC50 values are reported.

SMILES | IC50 [1] [nM] | EC50 [2] [nM]
Fc1cccc(-c2ccnc3[nH]c(-c4n[nH]c5ncc(C6CCNCC6)cc45)nc23)c1 [Compound 909, 3-(7-(3-Fluorophenyl)-3H-imidazo[4,5-b]pyridin-2-yl)-5-(piperidin-4-yl)-1H-pyrazolo[3,4-b]pyridine] | > 10000 | ≥ 9990
Oc1cncc(-c2cnc3[nH]nc(-c4nc5c(-c6cccc(F)c6)ccnc5[nH]4)c3c2)c1 [Compound 921, 5-(3-(7-(3-Fluorophenyl)-3H-imidazo[4,5-b]pyridin-2-yl)-1H-pyrazolo[3,4-b]pyridin-5-yl)pyridin-3-ol] | 27 | 164
c1ccc(-c2ccnc3[nH]c(-c4n[nH]c5ncc(-c6cncc(CNCC7CCCC7)c6)cc45)nc23)nc1 [Compound 130, 1-Cyclopentyl-N-((5-(3-(7-(pyridin-2-yl)-3H-imidazo[4,5-b]pyridin-2-yl)-1H-pyrazolo[3,4-b]pyridin-5-yl)pyridin-3-yl)methyl)methanamine] | 633 | ≤ 9
CC(C)Nc1cncc(-c2cnc3[nH]nc(-c4nc5c(-c6cc(F)cc(NCCN(C)C)c6)ccnc5[nH]4)c3c2)c1 [Compound 426, N^1-(3-Fluoro-5-(2-(5-(5-(isopropylamino)pyridin-3-yl)-1H-pyrazolo [3,4-b]pyridin-3-yl)-3H-imidazo[4,5-b]pyridin-7-yl)phenyl)-N^2,N^2-dimethylethane-1,2-diamine] | 129 | 287
c1cncc(-c2cnc3[nH]nc(-c4nc5cccnc5[nH]4)c3c2)c1 [Compound 212, 3-(3H-Imidazo[4,5-b]pyridin-2-yl)-5-(pyridin-3-yl)-1H-pyrazolo[3,4-b]pyridine] | 214 | 501
O=C(Nc1cncc(-c2cnc3[nH]nc(-c4nc5c(-c6ccsc6)ccnc5[nH]4)c3c2)c1)c1ccccc1 [Compound 243, N-(5-(3-(7-(Thiophen-3-yl)-3H-imidazo[4,5-b]pyridin-2-yl)-1H-pyrazolo[3,4-b]pyridin-5-yl)pyridin-3-yl)benzamide] | 33 | 113
CCNCc1cncc(-c2cnc3[nH]nc(-c4nc5c(-c6ccoc6)ccnc5[nH]4)c3c2)c1 [Compound 264, N-((5-(3-(7-(Furan-3-yl)-3H-imidazo[4,5-b]pyridin-2-yl)-1H-pyrazolo [3,4-b]pyridin-5-yl)pyridin-3-yl)methyl)ethanamine] | > 10000 | ≤ 9
CCCC(=O)Nc1cncc(-c2cnc3[nH]nc(-c4nc5c(-c6ccncc6)ccnc5[nH]4)c3c2)c1 [Compound 102, N-(5-(3-(7-(Pyridin-4-yl)-3H-imidazo[4,5-b]pyridin-2-yl)-1H-pyrazolo[3,4-b]pyridin-5-yl)pyridin-3-yl)butyramide] | 2380 | ≥ 9990
O=C(Nc1cncc(-c2cnc3[nH]nc(-c4nc5c(-c6ccccc6F)ccnc5[nH]4)c3c2)c1)C1CCCC1 [Compound 61, N-(5-(3-(7-(2-Fluorophenyl)-3H-imidazo[4,5-b]pyridin-2-yl)-1H-pyrazolo[3,4-b]pyridin-5-yl)pyridin-3-yl)cyclopentanecarboxamide] | 42 | 587
CN(C)c1cncc(-c2cnc3[nH]nc(-c4nc5c(N6CCCCC6)ccnc5[nH]4)c3c2)c1 [Compound 139, N,N-Dimethyl-5-(3-(7-(piperidin-1-yl)-3H-imidazo[4,5-b]pyridin-2-yl)-1H-pyrazolo[3,4-b]pyridin-5-yl)pyridin-3-amine] | 384 | ≥ 9990
CS(=O)(=O)NCc1cc(F)cc(-c2ccnc3[nH]c(-c4n[nH]c5ncc(-c6cncnc6)cc45)nc23)c1 [Compound 414, N-(3-Fluoro-5-(2-(5-(pyrimidin-5-yl)-1H-pyrazolo[3,4-b]pyridin-3-yl)-3H-imidazo[4,5-b]pyridin-7-yl)benzyl)methanesulfonamide] | > 10000 | ≥ 9990
Fc1cccc(-c2ccnc3[nH]c(-c4n[nH]c5ncc(C6=CCNCC6)cc45)nc23)c1 [Compound 910, 3-(7-(3-Fluorophenyl)-3H-imidazo[4,5-b]pyridin-2-yl)-5-(1,2,3,6-tetrahydropyridin-4-yl)-1H-pyrazolo[3,4-b]pyridine] | > 10000 | ≥ 9990
CC(C)(C)C(=O)Nc1cncc(-c2cnc3[nH]nc(-c4nc5c(-c6ccc(F)cc6)ccnc5[nH]4)c3c2)c1 [Compound 28, N-(5-(3-(7-(4-Fluorophenyl)-3H-imidazo[4,5-b]pyridin-2-yl)-1H-pyrazolo[3,4-b]pyridin-5-yl)pyridin-3-yl)pivalamide] | 42.3 | 26
c1cncc(-c2ccnc3[nH]c(-c4n[nH]c5ncc(-c6cncc(CN7CCCCC7)c6)cc45)nc23)c1 [Compound 78, 5-(5-(Piperidin-1-ylmethyl)pyridin-3-yl)-3-(7-(pyridin-3-yl)-3H-imidazo[4,5-b]pyridin-2-yl)-1H-pyrazolo[3,4-b]pyridine] | > 10000 | ≥ 9990
Fc1cccc(-c2ccnc3[nH]c(-c4n[nH]c5ncc(-c6ccccn6)cc45)nc23)c1 [Compound 925, 3-(7-(3-Fluorophenyl)-3H-imidazo[4,5-b]pyridin-2-yl)-5-(pyridin-2-yl)-1H-pyrazolo[3,4-b]pyridine] | > 10000 | ≥ 9990
CCNCc1cncc(-c2cnc3[nH]nc(-c4nc5c(-c6ccccn6)ccnc5[nH]4)c3c2)c1 [Compound 114, N-((5-(3-(7-(Pyridin-2-yl)-3H-imidazo[4,5-b]pyridin-2-yl)-1H-pyrazolo[3,4-b]pyridin-5-yl)pyridin-3-yl)methyl)ethanamine] | > 10000 | ≥ 9990
CN1CCN(c2ccnc3[nH]c(-c4n[nH]c5ncc(-c6cncc(CN7CCCCC7)c6)cc45)nc23)CC1 [Compound 198, 3-(7-(4-Methylpiperazin-1-yl)-3H-imidazo[4,5-b]pyridin-2-yl)-5-(5-(piperidin-1-ylmethyl)pyridin-3-yl)-1H-pyrazolo[3,4-b]pyridine] | > 10000 | 3040
c1cncc(-c2cnc3[nH]nc(-c4nc5c(-c6cccnc6)ccnc5[nH]4)c3c2)c1 [Compound 68, 5-(Pyridin-3-yl)-3-(7-(pyridin-3-yl)-3H-imidazo[4,5-b]pyridin-2-yl)-1H-pyrazolo[3,4-b]pyridine] | > 10000 | ≥ 9990
O=C(Nc1cncc(-c2cnc3[nH]nc(-c4nc5c(-c6cccs6)ccnc5[nH]4)c3c2)c1)C1CC1 [Compound 303, N-(5-(3-(7-(Thiophen-2-yl)-3H-imidazo[4,5-b]pyridin-2-yl)-1H-pyrazolo[3,4-b]pyridin-5-yl)pyridin-3-yl)cyclopropanecarboxamide] | 7.7 | ≥ 9990
